Laboratory results reported in the NIST ThermoML archive (doi:10.1007/s10765-011-1087-7).

How the values were obtained:
[1] = xn = mol fraction of the nth substance listed; conditions: 101 kPa, Liquid; for speed of sound: Pulse-echo method
[2] = refractive index (Na D-line) (dimensionless); xn = mol fraction of the nth substance listed; conditions: 101 kPa, Liquid

CCCCCCC(C)O (stereo unspecified) [2-octanol] + Clc1cccc(Cl)c1
Conditions | mass density, [1] [kg/m3] | refractive index, [2] | speed of sound, [1] [m/s] | viscosity, [1] [mPa·s]
298.15 K, x2 = 0 | – | – | – | 6.566
298.15 K, x2 = 0.0694 | 840.61 | 1.4312 | 1300.1 | 5.146
298.15 K, x2 = 0.1166 | 857.54 | 1.4366 | 1295.8 | 4.43
298.15 K, x2 = 0.1823 | 881.65 | 1.4436 | 1290 | 3.7
298.15 K, x2 = 0.2395 | 903.41 | 1.4494 | 1285.1 | 3.231
298.15 K, x2 = 0.3143 | 932.89 | 1.4567 | 1278.7 | 2.754
298.15 K, x2 = 0.379 | 959.33 | 1.4631 | 1273.3 | 2.429
298.15 K, x2 = 0.4488 | 988.41 | 1.4698 | 1268 | 2.138
298.15 K, x2 = 0.5084 | 1014.16 | 1.4758 | 1263.7 | 1.934
298.15 K, x2 = 0.582 | 1047.42 | 1.4838 | 1258.9 | 1.715
298.15 K, x2 = 0.6659 | 1086.85 | 1.4939 | 1254.6 | 1.505
298.15 K, x2 = 0.7208 | 1114.21 | 1.5009 | 1252.4 | 1.394
298.15 K, x2 = 0.7847 | 1147.67 | 1.5099 | 1250.7 | 1.279
298.15 K, x2 = 0.8663 | 1194.04 | 1.5224 | 1250.4 | 1.151
298.15 K, x2 = 0.9434 | 1243.52 | 1.5349 | 1251.8 | 1.065
303.15 K, x2 = 0 | – | – | – | 5.178
303.15 K, x2 = 0.0694 | 836.24 | 1.4293 | 1282.4 | 4.351
303.15 K, x2 = 0.1166 | 852.87 | 1.4348 | 1278.1 | 3.821
303.15 K, x2 = 0.1823 | 876.71 | 1.4418 | 1272.3 | 3.246
303.15 K, x2 = 0.2395 | 898.21 | 1.4475 | 1267.5 | 2.847
303.15 K, x2 = 0.3143 | 927.45 | 1.4546 | 1261.2 | 2.412
303.15 K, x2 = 0.379 | 953.45 | 1.4608 | 1256.1 | 2.113
303.15 K, x2 = 0.4488 | 982.39 | 1.4677 | 1251 | 1.857
303.15 K, x2 = 0.5084 | 1007.74 | 1.4738 | 1246.9 | 1.679
303.15 K, x2 = 0.582 | 1040.69 | 1.4819 | 1242.3 | 1.51
303.15 K, x2 = 0.6659 | 1079.96 | 1.4921 | 1238.3 | 1.378
303.15 K, x2 = 0.7208 | 1107.42 | 1.4994 | 1236.2 | 1.302
303.15 K, x2 = 0.7847 | 1141.2 | 1.5084 | 1234.6 | 1.226
303.15 K, x2 = 0.8663 | 1187.75 | 1.5209 | 1234.2 | 1.14
303.15 K, x2 = 0.9434 | 1236.9 | 1.5327 | 1235.6 | 1.042
308.15 K, x2 = 0 | – | – | – | 4.162
308.15 K, x2 = 0.0694 | 832.14 | 1.4273 | 1264.6 | 3.517
308.15 K, x2 = 0.1166 | 848.59 | 1.4327 | 1260.1 | 3.17
308.15 K, x2 = 0.1823 | 871.91 | 1.4397 | 1254.2 | 2.759
308.15 K, x2 = 0.2395 | 892.9 | 1.4455 | 1249.6 | 2.463
308.15 K, x2 = 0.3143 | 920.82 | 1.4527 | 1243.5 | 2.119
308.15 K, x2 = 0.379 | 945.97 | 1.4589 | 1238.9 | 1.892
308.15 K, x2 = 0.4488 | 974.25 | 1.4658 | 1233.9 | 1.673
308.15 K, x2 = 0.5084 | 999.57 | 1.4718 | 1230.2 | 1.512
308.15 K, x2 = 0.582 | 1032.22 | 1.4798 | 1226 | 1.358
308.15 K, x2 = 0.6659 | 1071.96 | 1.4898 | 1221.9 | 1.207
308.15 K, x2 = 0.7208 | 1099.76 | 1.4969 | 1219.4 | 1.132
308.15 K, x2 = 0.7847 | 1134.17 | 1.5057 | 1217.9 | 1.05
308.15 K, x2 = 0.8663 | 1181.99 | 1.518 | 1217.3 | 0.956
308.15 K, x2 = 0.9434 | 1231.4 | 1.5298 | 1219.3 | 0.898
